The values below come from patent publication US5118678A, “Carbamates of rapamycin” (American Home Products Corporation, priority 1991, dated 1992).

Each structure is given as a SMILES string. Where two headings read alike, the source gives them in different places. Some results are limits rather than exact numbers.

The subject of test [1] is cells from the thymus of normal BALB/c mice (lymphocyte proliferation). Nature of the test: comitogen-induced thymocyte proliferation procedure (LAF). In kind it is cell-based. As to conditions: Mus musculus; for IC50: read-out: LAF IC50. How it is done: (§1) Immunosuppressive activity was evaluated in an in vitro standard pharmacological test procedure to measure lymphocyte proliferation (LAF) and in two in vivo standard pharmacological test procedures. The first in vivo procedure was a popliteal lymph node (PLN) test procedure which measured the effect of compounds of this invention on a mixed lymphocyte reaction and the second in vivo procedure evaluated the survival time of a pinch skin graft.
Briefly, cells from the thymus of normal BALB/c mice are cultured for 72 hours with PHA and IL-1 and pulsed with tritiated thymidine during the last six hours. […] Cells are harvested and incorporated radioactivity is determined. Inhibition of lymphoproliferation is assessed as percent change in counts per minute from non-drug treated controls. The results are expressed as an IC50. [formula]

Test [2] relates to pinch skin graft from male DBA/2 donors transplanted to male BALB/c recipients. The experiment in a line: survival time of pinch skin graft. As to conditions: intraperitoneally; mean ± S.D.; untreated grafts typically rejected within 6-7 days. In kind it is in vivo, DBA/2 donors (mice). Here is the method: as §1
The second in vivo test procedure is designed to determine the survival time of pinch skin graft from male DBA/2 donors transplanted to male BALB/c recipients. The method is adapted from Billingham R. E. and Medawar P. B., J. Exp. Biol. 28:385-402, (1951). Briefly, a pinch skin graft from the donor is grafted on the dorsum of the recipient as a homograft, and an autograft is used as control in the same region. […] Untreated recipients serve as rejection control. The graft is monitored daily and observations are recorded until the graft becomes dry and forms a blackened scab. This is considered as the rejection day. The mean graft survival time (number of days ±S.D.) of the drug treatment group is compared with the control group.

Test [3] relates to popliteal lymph node, mixed lymphocyte reaction. Nature of the test: popliteal lymph node (PLN) test procedure (in vivo mixed lymphocyte reaction). The arrangement: species or system C3H mice (recipients), BALB/c donors. As to conditions: for PLN (ratio): p.o. daily Day 0 to Day 4, rapamycin = 1.00. How it is done:
as §1
A mixed lymphocyte reaction (MLR) occurs when lymphoid cells from genetically distinct animals are combined in tissue culture. Each stimulates the other to undergo blast transformation which results in increased DNA synthesis that can be quantified by the incorporation of tritiated thymidine. Since stimulating a MLR is a function of disparity at Major Histocompatibility antigens, an in vivo popliteal lymph node (PLN) test procedure closely correlates to host vs. graft disease. Briefly, irradiated spleen cells from BALB/c donors are injected into the right hind foot pad of recipient C3H mice. The drug is given daily, p.o. from Day 0 to Day 4. On Day 3 and Day 4, tritiated thymidine is given i.p., b.i.d. On Day 5, the hind popliteal lymph nodes are removed and dissolved, and radioactivity counted. The corresponding left PLN serves as the control for the PLN from the injected hind foot. Percent suppression is calculated using the non-drug treated animals as allogenic control. […] Results are expressed by the following ratio: [formula]

The conditions of test [4]: FASEB 1989; Lancet 1978; cited from earlier work.
A further test deals with IgE-like antibodies. The note with it: R. Martel et al. 1977; cited from earlier work.
The test system of test [5] is experimental allergic encephalomyelitis model, a model for multiple sclerosis. The note with it: R. Martel et al. 1977; cited from earlier work.
The mark [6] stands for this setting: thymocytes cultured 72 h with PHA and IL-1, tritiated thymidine incorporation, vs non-drug treated controls.

As a reminder, the inhibition is the share of the control response that was lost under treatment. As for `CO[C@H]1C[C@@H]2CC[C@@H](C)[C@@](O)(O2)C(=O)C(=O)N2CCCC[C@H]2C(=O)O[C@H]([C@H](C)C[C@@H]2CC[C@@H](OC(=O)Nc3ccc([N+](=O)[O-])cc3)[C@H](OC)C2)CC(=O)[C@H](C)/C=C(\C)[C@@H](OC(=O)Nc2ccc([N+](=O)[O-])cc2)[C@@H](OC)C(=O)[C@H](C)C[C@H](C)/C=C/C=C/C=C/1C` [Example 5, Rapamycin-31,42-diester with (4-nitrophenyl)carbamic acid], the inhibition at 0.1 µM in test [1] (read-out: LAF percent inhibition) came out at 3%.
By IC50 is commonly meant the point on the concentration scale where inhibition reaches its midpoint. With `CO[C@H]1C[C@@H]2CC[C@@H](C)[C@@](O)(O2)C(=O)C(=O)N2CCCC[C@H]2C(=O)O[C@H]([C@H](C)C[C@@H]2CC[C@@H](OC(=O)Nc3ccc(F)cc3)[C@H](OC)C2)CC(=O)[C@H](C)/C=C(\C)[C@@H](O)[C@@H](OC)C(=O)[C@H](C)C[C@H](C)/C=C/C=C/C=C/1C` [Example 1, Rapamycin 42-ester with (4-fluorophenyl)carbamic acid], the concentration for half-maximal inhibition (IC50) in test [1] (setting [6]) amounted to 8.6 nM. Moreover, the “Skin Graft (mean graft survival time, days + SD)” value in test [2] was 8.5 ± 1.6 days. The “PLN (ratio)” value in test [3] came to 0.71 ratio.
With `CO[C@H]1C[C@@H]2CC[C@@H](C)[C@@](O)(O2)C(=O)C(=O)N2CCCC[C@H]2C(=O)O[C@H]([C@H](C)C[C@@H]2CC[C@@H](OC(=O)Nc3ccc(C(F)(F)F)cc3)[C@H](OC)C2)CC(=O)[C@H](C)/C=C(\C)[C@@H](OC(=O)Nc2ccc(C(F)(F)F)cc2)[C@@H](OC)C(=O)[C@H](C)C[C@H](C)/C=C/C=C/C=C/1C` [Example 3, Rapamycin-31,42-diester with [4-(trifluoromethyl)phenyl]carbamic acid], the IC50 in test [1] (setting [6]) was over 1000 nM.
The same measure, in the same setting: next, `CO[C@H]1C[C@@H]2CC[C@@H](C)[C@@](O)(O2)C(=O)C(=O)N2CCCC[C@H]2C(=O)O[C@H]([C@H](C)C[C@@H]2CC[C@@H](OC(=O)Nc3ccc(F)cc3)[C@H](OC)C2)CC(=O)[C@H](C)/C=C(\C)[C@@H](OC(=O)Nc2ccc(F)cc2)[C@@H](OC)C(=O)[C@H](C)C[C@H](C)/C=C/C=C/C=C/1C` [Example 12, Rapamycin-31,42-diester with (4-fluorophenyl)carbamic acid]: over 1000 nM.
Turning to `CO[C@H]1C[C@@H]2CC[C@@H](C)[C@@](O)(O2)C(=O)C(=O)N2CCCC[C@H]2C(=O)O[C@H]([C@H](C)C[C@@H]2CC[C@@H](OC(=O)Nc3ccccc3)[C@H](OC)C2)CC(=O)[C@H](C)/C=C(\C)[C@@H](O)[C@@H](OC)C(=O)[C@H](C)C[C@H](C)/C=C/C=C/C=C/1C` [Example 2, Rapamycin 42-ester with phenylcarbamic acid], the IC50 in test [1] (setting [6]) stood at 3.9 nM. Besides, the “Skin Graft (mean graft survival time, days + SD)” value in test [2] is 8.5 ± 1.2 days. Moreover, the “PLN (ratio)” value in test [3] worked out at 0.47 ratio.
As for `CO[C@H]1C[C@@H]2CC[C@@H](C)[C@@](O)(O2)C(=O)C(=O)N2CCCC[C@H]2C(=O)O[C@H]([C@H](C)C[C@@H]2CC[C@@H](OC(=O)Nc3ccccc3)[C@H](OC)C2)CC(=O)[C@H](C)/C=C(\C)[C@@H](OC(=O)Nc2ccccc2)[C@@H](OC)C(=O)[C@H](C)C[C@H](C)/C=C/C=C/C=C/1C` [Example 11, Rapamycin-31,42-diester with phenylcarbamic acid], the IC50 in test [1] (setting [6]) is over 1000 nM.
Regarding `CO[C@H]1C[C@@H]2CC[C@@H](C)[C@@](O)(O2)C(=O)C(=O)N2CCCC[C@H]2C(=O)O[C@H]([C@H](C)C[C@@H]2CC[C@@H](O[Si](C)(C)C(C)(C)C)[C@H](OC)C2)CC(=O)[C@H](C)/C=C(\C)[C@@H](OC(=O)Nc2ccc(F)cc2F)[C@@H](OC)C(=O)[C@H](C)C[C@H](C)/C=C/C=C/C=C/1C` [Example 14, Rapamycin-42-tert-butyldimethylsilyl ether-31-ester with (2,4-difluorophenyl)carbamic acid], the half-inhibitory concentration (IC50) in test [1] (72 h) was over 1000 nM.
With `CO[C@H]1C[C@@H]2CC[C@@H](C)[C@@](O)(O2)C(=O)C(=O)N2CCCC[C@H]2C(=O)O[C@H]([C@H](C)C[C@@H]2CC[C@@H](O)[C@H](OC)C2)CC(=O)[C@H](C)/C=C(\C)[C@@H](OC(=O)Nc2ccc(F)cc2F)[C@@H](OC)C(=O)[C@H](C)C[C@H](C)/C=C/C=C/C=C/1C` [Example 15, Rapamycin-31-ester with (2,4-difluorophenyl)carbamic acid], in test [1] (setting [6]), the concentration for half-maximal inhibition (IC50) was over 1000 nM.
Consider `CO[C@H]1C[C@@H]2CC[C@@H](C)[C@@](O)(O2)C(=O)C(=O)N2CCCC[C@H]2C(=O)O[C@H]([C@H](C)C[C@@H]2CC[C@@H](OC(=O)Nc3ccc(F)cc3F)[C@H](OC)C2)CC(=O)[C@H](C)/C=C(\C)[C@@H](O)[C@@H](OC)C(=O)[C@H](C)C[C@H](C)/C=C/C=C/C=C/1C` [Example 9, Rapamycin-42-ester with (2,4-difluorophenyl)carbamic acid], for which the IC50 in test [1] (setting [6]) was found to be 8.7 nM. Besides, in test [2], the “Skin Graft (mean graft survival time, days + SD)” value was determined as 8.0 ± 1.7 days. In test [3], the “PLN (ratio)” value was 0.72 ratio.
`CO[C@H]1C[C@@H]2CC[C@@H](C)[C@@](O)(O2)C(=O)C(=O)N2CCCC[C@H]2C(=O)O[C@H]([C@H](C)C[C@@H]2CC[C@@H](OC(=O)Nc3ccc(C)cc3)[C@H](OC)C2)CC(=O)[C@H](C)/C=C(\C)[C@@H](O)[C@@H](OC)C(=O)[C@H](C)C[C@H](C)/C=C/C=C/C=C/1C` [Example 8, Rapamycin-42-ester with (4-methylphenyl)carbamic acid]: the IC50 in test [1] (setting [6]) was 7.4 nM. The “Skin Graft (mean graft survival time, days + SD)” value in test [2] was 8.8 ± 1.3 days.
Regarding `CO[C@H]1C[C@@H]2CC[C@@H](C)[C@@](O)(O2)C(=O)C(=O)N2CCCC[C@H]2C(=O)O[C@H]([C@H](C)C[C@@H]2CC[C@@H](OC(=O)Nc3ccc(F)cc3F)[C@H](OC)C2)CC(=O)[C@H](C)/C=C(\C)[C@@H](OC(=O)Nc2ccc(F)cc2F)[C@@H](OC)C(=O)[C@H](C)C[C@H](C)/C=C/C=C/C=C/1C` [Example 10, Rapamycin-31,42-diester with (2,4-difluorophenyl)carbamic acid], in test [1] (setting [6]), the IC50 is over 1000 nM.
`C=CC[C@@H]1/C=C(\C)C[C@H](C)C[C@H](OC)[C@H]2O[C@@](O)(C(=O)C(=O)N3CCCC[C@H]3C(=O)O[C@H](/C(C)=C/[C@@H]3CC[C@@H](O)[C@H](OC)C3)[C@H](C)[C@@H](O)CC1=O)[C@H](C)C[C@@H]2OC` [FK-506]: in test [4], the immunosuppressive effects result is “effective as immunosuppressive agents”.
Regarding `CO[C@H]1C[C@@H]2CC[C@@H](C)[C@@](O)(O2)C(=O)C(=O)N2CCCC[C@H]2C(=O)O[C@H]([C@H](C)C[C@@H]2CC[C@@H](O)[C@H](OC)C2)CC(=O)[C@H](C)/C=C(\C)[C@@H](O)[C@@H](OC)C(=O)[C@H](C)C[C@H](C)/C=C/C=C/C=C/1C` [Rapamycin], the “inhibition of formation of IgE-like antibodies” value in the test on IgE-like antibodies is “effectively inhibited the formation of IgE-like antibodies”. Further, the IC50 in test [1] (72 h) lay in the range of 3.2 to 9.4 nM. Further, the “Skin Graft (mean graft survival time, days + SD)” value in test [2] was 12.0 ± 1.7 days. Also, in test [3] (6 mg/kg, p.o., vs non-drug treated animals as allogenic control), the “percent suppression (PLN)” value is listed as 86%. In addition, the “PLN (ratio)” value in test [3] was 1.00 ratio. The immunosuppressive effects entry in test [4] was “immunosuppressive effects”. Also, in test [5], the “effect in experimental allergic encephalomyelitis model” value was “effective in the experimental allergic encephalomyelitis model”.
In the case of `CO[C@H]1C[C@@H]2CC[C@@H](C)[C@@](O)(O2)C(=O)C(=O)N2CCCC[C@H]2C(=O)O[C@H]([C@H](C)C[C@@H]2CC[C@@H](OC(=O)Nc3ccc([N+](=O)[O-])cc3)[C@H](OC)C2)CC(=O)[C@H](C)/C=C(\C)[C@@H](O)[C@@H](OC)C(=O)[C@H](C)C[C@H](C)/C=C/C=C/C=C/1C` [Example 6, Rapamycin-42-ester with (4-nitrophenyl)carbamic acid], the IC50 in test [1] (setting [6]) is 10.4 nM. For the same compound, the “Skin Graft (mean graft survival time, days + SD)” value in test [2] amounted to 8.3 ± 1.0 days. The “PLN (ratio)” value in test [3] is 0.25 ratio.
Turning to `CO[C@H]1C[C@@H]2CC[C@@H](C)[C@@](O)(O2)C(=O)C(=O)N2CCCC[C@H]2C(=O)O[C@H]([C@H](C)C[C@@H]2CC[C@@H](OC(=O)Nc3ccc(C(F)(F)F)cc3)[C@H](OC)C2)CC(=O)[C@H](C)/C=C(\C)[C@@H](O)[C@@H](OC)C(=O)[C@H](C)C[C@H](C)/C=C/C=C/C=C/1C` [Example 4, Rapamycin-42-ester with [4-(trifluoromethyl)phenyl]carbamic acid], the half-inhibitory concentration (IC50) in test [1] (setting [6]) was found to be 57.9 nM. Besides, in test [3], the “PLN (ratio)” value came out at 0.90 ratio.
